Results from patent publication US12065443B2, “Compounds and pharmaceutical compositions thereof for the treatment of diseases” (priority 2017, dated 2024).
pEC50, pIC50: −log10 of the molar value.

Experiments:
[1] = tested on: LPS triggered IL-10 secretion in monocyte-derived macrophages (MdM); assay: MdM assay: LPS-triggered IL-10 (ELISA); assay type: cell-based, human; settings: maximal fold change vs LPS only, median across assays
Method: This assay evaluates illustrative compounds of the invention for their inhibition of LPS-induced TNFα and LPS triggered IL-10 secretion in monocyte-derived macrophages.
PBMCs are isolated from human blood samples (buffycoats). The buffy coat is aseptically transferred into a 50 mL Falcon tube, and diluted 1/2 in PBS. Falcon tubes are filled with 20 mL Lymphoprep™, on top of which 25 mL of the buffy coat is carefully added, tubes are centrifuged for 35 min at 400 g in temperature controlled centrifuge, without brake, at 25° C. PBMCs are aspirated from the white interface layer between sample and Lymphoprep™. PBMCs are washed five times in PBS.
PBMCs are centrifuged at 300×g for 10 min and resuspended at a density of 1.0E07 cells/80 μL Miltenyi buffer (PBS, pH 7.4, 1% FBS, 2 mM EDTA).
Starting from this point of the protocol all steps are performed on ice. 20 μL of CD14+ micro-beads are added per 1.0E07 cells, the tube is mixed and incubated for 15 min in the fridge at 4° C. Cell suspension volume is adjusted to total volume of 100 mL using Miltenyi buffer, mixed gently and subsequently centrifuged for 10 min at 300× g. Supernantant is discarded and cell pellet is resuspended in 12 mL of Miltenyi buffer.
Four LS columns are placed in the MACS Separator (magnet) from Miltenyi Biotec, and are prewet by rinsing with 3 mL of MACS buffer per column. Three mL of cell suspension is added onto the column (max 1*10^8 of labelled cells/column), and columns are subsequently washed 3 times with 3 mL of Miltenyi buffer.
The columns are removed from the magnets, and 5 mL of Miltenyi buffer are added to the column to flush out the CD14+ fraction by pushing the plunger into the column. The flushed fractions are collected in a fresh 50 mL Falcon and volume is adjusted to 30 mL using Miltenyi buffer, cells are centrifuged for 10 min at 300× g. The obtained cell pellet is resuspended in 10 mL RPMI w/o FBS, and cell density is determined using a hematologic analyser (Sysmex XS-500i).
On day 10, MdMs are triggered and compound is added.
A compound dilution plate is made in 100% DMSO by 3-fold dilution of 10 mM stock solution. An intermediate dilution plate (10× final concentration) is made by diluting the compound dilution plate 50-fold in RPMI medium.
Medium is carefully removed from cell plates using multichannel pipette, and replaced by 80 μL fresh medium. 10 μL of the 10× final concentration compound is added to the cells and incubated for 1 hour at 37° C. before addition of trigger. No trigger conditions/trigger conditions are spiked with equal final DMSO concentrations of 0.2% DMSO. 10 μL of 10×LPS (final conc. 200 ng/mL) solution are added to all wells except for the ‘no trigger wells’ where 10 μL medium is added. Supernatant is collected after 2 h (IL-10 determination) and after 20 h (TNFα determination) of LPS triggering.
Plates are washed three times with PBST, where after 100 μL of Strep-HRP conjugate (0.5 μg/mL final concentration diluted in dilution buffer) is added. Plates are incubated in the dark, at 37° C. for 30 min. Plates are washed three times with PBST. […] 100 μL of substrate solution is added to each well and incubated until brilliant blue color develops. The reaction is stopped by adding 50 μL of 1 M H2SO4, after which absorbance is measured at 450 nm on the SpectraMax i3, Molecular Devices.
To quantify these inductions fold changes (FC) compared to ‘LPS only’ are calculated for each concentration tested and the maximal FC is calculated (IL-10 FCmax):
[formula] wherein ABS=Absorbance measured at 450 nm.
The median maximal FC for test compounds across two or more assays is reported (IL-10FCmax median).

[2] = tested on: LPS-induced TNFα secretion in monocyte-derived macrophages (MdM); assay: MdM assay: LPS-triggered TNFα (ELISA); assay type: cell-based, human; settings: Homo sapiens, Macrophage, LPS-triggered TNFα inhibition
How it was run: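 Human CD14+ monocytes isolated from buffy-coat PBMCs by magnetic beads, differentiated to macrophages; on day 10 compound preincubated 1 h at 37 °C, then LPS 200 ng/mL added (0.2% DMSO). Supernatant taken after 20 h; TNFα quantified by sandwich ELISA against standard curve.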

SIK3 = biological target: T1, SIK3 (Homo sapiens, UniProt Q9Y2K2); assay: biochemical
T1 construct: purchased SignalChem S12-11G-100
How it was run: (§1)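 Read-out: ^33P incorporated into AMARA peptide, counted on filter plates, taken as kinase activity. Reactions start on addition of labeled/unlabeled ATP to enzyme plus substrate and end with phosphoric acid. Controls: 1% DMSO (negative) and 10 μM staurosporine (positive), final.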

SIK1 = biological target: T2, SIK1 (Homo sapiens, UniProt P57059); assay: biochemical; settings: 33P radioactive SIK kinase assay, AMARA peptide, 10 μM ATP; read-out: SIK1 IC50
T2 construct: purchased Carna Biosciences 02-131
How it was run: as §1

SIK2 = biological target: T3, SIK2 (Homo sapiens, UniProt Q9H0K1); assay: biochemical; settings: 33P radioactive SIK kinase assay, AMARA peptide, 10 μM ATP
T3 construct: purchased ThermoFisher Scientific PV4792
How it was run: as §1

T1 sequence (Q9Y2K2 whole entry): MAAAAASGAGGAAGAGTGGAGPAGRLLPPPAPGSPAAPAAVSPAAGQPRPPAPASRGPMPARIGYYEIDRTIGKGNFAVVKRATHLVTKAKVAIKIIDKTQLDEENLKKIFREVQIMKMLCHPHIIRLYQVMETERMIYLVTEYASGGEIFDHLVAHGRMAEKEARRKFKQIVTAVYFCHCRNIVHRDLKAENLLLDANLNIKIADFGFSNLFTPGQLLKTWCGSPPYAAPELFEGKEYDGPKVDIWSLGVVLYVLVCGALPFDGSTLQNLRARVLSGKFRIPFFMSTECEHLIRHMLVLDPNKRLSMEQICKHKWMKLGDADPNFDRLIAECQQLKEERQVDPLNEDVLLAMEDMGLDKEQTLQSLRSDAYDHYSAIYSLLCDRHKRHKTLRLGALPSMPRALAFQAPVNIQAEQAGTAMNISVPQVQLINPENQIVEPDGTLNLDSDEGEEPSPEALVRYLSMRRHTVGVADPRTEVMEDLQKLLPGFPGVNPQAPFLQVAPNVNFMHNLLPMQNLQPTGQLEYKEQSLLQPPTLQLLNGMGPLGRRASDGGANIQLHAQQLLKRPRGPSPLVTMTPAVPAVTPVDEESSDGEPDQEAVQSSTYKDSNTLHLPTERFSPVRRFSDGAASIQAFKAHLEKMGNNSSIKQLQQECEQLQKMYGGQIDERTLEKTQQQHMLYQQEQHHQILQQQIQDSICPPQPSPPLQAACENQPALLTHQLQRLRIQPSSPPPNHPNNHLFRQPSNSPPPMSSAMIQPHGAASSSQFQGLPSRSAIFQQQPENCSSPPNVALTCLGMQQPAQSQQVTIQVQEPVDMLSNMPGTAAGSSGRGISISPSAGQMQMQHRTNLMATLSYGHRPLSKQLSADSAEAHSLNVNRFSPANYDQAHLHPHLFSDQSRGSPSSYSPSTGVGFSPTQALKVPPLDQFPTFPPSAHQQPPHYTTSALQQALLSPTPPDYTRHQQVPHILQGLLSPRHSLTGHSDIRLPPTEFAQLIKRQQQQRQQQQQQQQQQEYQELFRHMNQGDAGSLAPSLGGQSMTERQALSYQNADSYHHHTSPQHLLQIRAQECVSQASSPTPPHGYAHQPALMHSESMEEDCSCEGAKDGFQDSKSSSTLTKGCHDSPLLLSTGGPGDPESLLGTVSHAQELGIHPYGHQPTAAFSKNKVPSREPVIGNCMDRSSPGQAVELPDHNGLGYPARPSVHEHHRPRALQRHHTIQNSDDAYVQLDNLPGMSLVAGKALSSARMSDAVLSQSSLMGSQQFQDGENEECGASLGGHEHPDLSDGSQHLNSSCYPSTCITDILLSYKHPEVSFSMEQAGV
T2 sequence (P57059 whole entry): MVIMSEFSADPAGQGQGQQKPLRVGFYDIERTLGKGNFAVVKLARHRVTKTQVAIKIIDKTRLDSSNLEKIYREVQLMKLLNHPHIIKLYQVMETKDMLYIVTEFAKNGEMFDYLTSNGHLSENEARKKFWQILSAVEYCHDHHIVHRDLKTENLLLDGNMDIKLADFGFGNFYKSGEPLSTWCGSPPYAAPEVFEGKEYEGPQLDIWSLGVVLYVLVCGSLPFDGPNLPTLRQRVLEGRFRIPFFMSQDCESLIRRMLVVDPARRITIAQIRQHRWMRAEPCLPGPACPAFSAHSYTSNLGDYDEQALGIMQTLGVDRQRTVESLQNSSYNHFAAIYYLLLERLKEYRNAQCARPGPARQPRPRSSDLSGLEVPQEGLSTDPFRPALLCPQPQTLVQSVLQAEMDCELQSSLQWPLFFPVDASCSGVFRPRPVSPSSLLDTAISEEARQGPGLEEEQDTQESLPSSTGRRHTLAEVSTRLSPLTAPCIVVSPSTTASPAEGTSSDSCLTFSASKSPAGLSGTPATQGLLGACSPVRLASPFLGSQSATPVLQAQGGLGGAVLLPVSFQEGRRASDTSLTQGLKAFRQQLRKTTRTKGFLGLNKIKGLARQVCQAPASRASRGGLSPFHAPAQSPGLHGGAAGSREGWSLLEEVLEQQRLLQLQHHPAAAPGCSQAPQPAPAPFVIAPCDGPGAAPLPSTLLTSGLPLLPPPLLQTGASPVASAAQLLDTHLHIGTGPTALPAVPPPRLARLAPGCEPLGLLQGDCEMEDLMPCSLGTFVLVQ
T3 sequence (Q9H0K1 whole entry): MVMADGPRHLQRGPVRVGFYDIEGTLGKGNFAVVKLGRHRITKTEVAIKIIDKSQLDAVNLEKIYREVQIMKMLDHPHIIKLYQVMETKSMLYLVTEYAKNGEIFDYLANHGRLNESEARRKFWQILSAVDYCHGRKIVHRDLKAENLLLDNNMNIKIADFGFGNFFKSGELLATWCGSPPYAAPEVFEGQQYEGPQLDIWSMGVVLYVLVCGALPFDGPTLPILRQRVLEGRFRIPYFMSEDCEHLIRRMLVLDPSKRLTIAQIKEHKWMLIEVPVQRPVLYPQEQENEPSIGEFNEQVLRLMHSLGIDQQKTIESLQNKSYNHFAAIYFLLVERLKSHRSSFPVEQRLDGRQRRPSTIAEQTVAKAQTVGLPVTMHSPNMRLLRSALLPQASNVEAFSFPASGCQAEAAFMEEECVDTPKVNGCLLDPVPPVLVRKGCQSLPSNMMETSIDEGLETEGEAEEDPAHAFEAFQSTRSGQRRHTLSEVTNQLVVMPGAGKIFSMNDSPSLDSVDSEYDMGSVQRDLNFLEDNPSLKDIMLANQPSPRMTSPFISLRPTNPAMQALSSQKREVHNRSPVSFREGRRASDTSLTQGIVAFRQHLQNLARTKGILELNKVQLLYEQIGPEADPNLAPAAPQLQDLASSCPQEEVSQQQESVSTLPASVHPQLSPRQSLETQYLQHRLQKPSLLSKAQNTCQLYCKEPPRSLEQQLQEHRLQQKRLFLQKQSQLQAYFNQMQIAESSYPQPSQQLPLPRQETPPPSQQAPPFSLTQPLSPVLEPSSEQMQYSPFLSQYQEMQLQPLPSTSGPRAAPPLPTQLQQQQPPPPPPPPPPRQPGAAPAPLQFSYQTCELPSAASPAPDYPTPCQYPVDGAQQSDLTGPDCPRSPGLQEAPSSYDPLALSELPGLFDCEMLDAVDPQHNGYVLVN

pEC50 [2]	pIC50 (SIK3)	pIC50 (SIK1)	pIC50 (SIK2)	Compound	IL-10 FCmax median [1]
< 5.30	8.00 to 11.00	8.00 to 11.00	8.00 to 11.00	COc1cc(-n2cnc3cc(-c4cnn(CCO)c4)ccc32)cc(OC)c1C(=O)NCC(F)(F)F [compound 33, 4-[5-[1-(2-hydroxyethyl)pyrazol-4-yl]benzimidazol-1-yl]-2,6-dimethoxy-N-(2,2,2-trifluoroethyl)benzamide]	++ (>1.5-4.5)
6.00 to 7.00	7.00 to 8.00	7.00 to 8.00	7.00 to 8.00	COc1cc(-c2cnc3cc(-c4cnn(C)c4)ccn23)cc(C)c1C(=O)NCC(F)(F)F [Cpd 206, 2-methoxy-6-methyl-4-[7-(1-methylpyrazol-4-yl)imidazo[1,2-a]pyridin-3-yl]-N-(2,2,2-trifluoroethyl)benzamide]	+++ (>4.5)
6.00 to 7.00	8.00 to 11.00	6.30 to 7.00	7.00 to 8.00	COc1cc(-c2cnc3cc(-c4ccc(C#N)nc4)ccn23)cc(OC)c1C(=O)NCC(F)(F)F [compound 240, 4-[7-(6-cyano-3-pyridyl)imidazo[1,2-a]pyridin-3-yl]-2,6-dimethoxy-N-(2,2,2-trifluoroethyl)benzamide]	+ (≤1.5)
6.00 to 7.00	8.00 to 11.00	7.00 to 8.00	8.00 to 11.00	COc1cc(-n2cnc3cc(-c4cnn(C)c4)ccc32)cc(OC)c1C(=O)N[C@@H]1C[C@@H]1C(F)F [compound 158]	++ (>1.5-4.5)
6.00 to 7.00	8.00 to 11.00	7.00 to 8.00	8.00 to 11.00	CCn1cc(-c2ccc3c(c2)ncn3-c2cc(OC)c(C(=O)NCC#N)c(OC)c2)cn1 [compound 50, N-(cyanomethyl)-4-[5-(1-ethylpyrazol-4-yl)benzimidazol-1-yl]-2,6-dimethoxy-benzamide]	++ (>1.5-4.5)
6.00 to 7.00	8.00 to 11.00	8.00 to 11.00	8.00 to 11.00	COc1cc(-c2cnc3cc(-c4cn[nH]c4)ccn23)cc(OC)c1C(=O)N[C@H](C)C(F)(F)F [compound 222, 2,6-dimethoxy-4-[7-(1H-pyrazol-4-yl)imidazo[1,2-a]pyridin-3-yl]-N-[(1R)-2,2,2-trifluoro-1-methyl-ethyl]benzamide]	+++ (>4.5)
6.00 to 7.00	7.00 to 8.00	7.00 to 8.00	7.00 to 8.00	CCn1cc(-c2cnc3c(c2)ncn3-c2cc(OC)c(C(=O)NCC(F)(F)F)c(OC)c2)cn1 [Cpd 29, 4-[6-(1-ethylpyrazol-4-yl)imidazo[4,5-b]pyridin-3-yl]-2,6-dimethoxy-N-(2,2,2-trifluoroethyl)benzamide]	++ (>1.5-4.5)
6.00 to 7.00	8.00 to 11.00	7.00 to 8.00	8.00 to 11.00	COc1cc(-n2cnc3cc(-c4cnn(CCN5CCOCC5)c4)ccc32)cc(OC)c1C(=O)NCC(F)(F)F [compound 41, 2,6-dimethoxy-4-[5-[1-(2-morpholinoethyl)pyrazol-4-yl]benzimidazol-1-yl]-N-(2,2,2-trifluoroethyl)benzamide]	++ (>1.5-4.5)
7.00 to 10.00	8.00 to 11.00	8.00 to 11.00	8.00 to 11.00	COc1cc(-n2cnc3cc(-c4cnn(C5CCN(C)CC5)c4)ccc32)cc(OC)c1C(=O)NCC(F)(F)F [Cpd 46, 2,6-dimethoxy-4-[5-[1-(1-methyl-4-piperidyl)pyrazol-4-yl]benzimidazol-1-yl]-N-(2,2,2-trifluoroethyl)benzamide]	++ (>1.5-4.5)
6.00 to 7.00	8.00 to 11.00	8.00 to 11.00	8.00 to 11.00	COc1cc(-c2cnc3cc(-c4cnn(C)c4)ccn23)cc(OC)c1C(=O)N1CC(C#N)C1 [compound 209, 1-[2,6-dimethoxy-4-[7-(1-methylpyrazol-4-yl)imidazo[1,2-a]pyridin-3-yl]benzoyl)azetidine-3-carbonitrile]	++ (>1.5-4.5)
6.00 to 7.00	8.00 to 11.00	8.00 to 11.00	8.00 to 11.00	COc1cc(-n2cnc3cc(-c4cnn(C)c4)ccc32)cc(OC)c1C(=O)N1CC(O)(C(F)(F)F)C1 [compound 219, [2,6-dimethoxy-4-[5-(1-methylpyrazol-4-yl)benzimidazol-1-yl]phenyl]-[3-hydroxy-3-(trifluoromethyl)azetidin-1-yl]methanone]	++ (>1.5-4.5)
< 5.30	7.00 to 8.00	7.00 to 8.00	7.00 to 8.00	CCn1cc(-c2ccc3c(c2)ncn3-c2cc(OC)c(C(=O)NC3C[C@H]3C)c(OC)c2)cn1 (stereo partly drawn) [compound 49, 4-[5-(1-ethylpyrazol-4-yl)benzimidazol-1-yl]-2,6-dimethoxy-N-[(2R)-2-methylcyclopropyl]benzamide]	++ (>1.5-4.5)
7.00 to 10.00	8.00 to 11.00	8.00 to 11.00	8.00 to 11.00	COc1cc(-n2cnc3cc(-c4cnn(C)c4)ccc32)cc(OC)c1C(=O)N[C@@H]1C[C@@H]1F [compound 144, N-[(1R,2S)-2-fluorocyclopropyl)-2,6-dimethoxy-4-[5-(1-methylpyrazol-4-yl)benzimidazol-1-yl]benzamide]	++ (>1.5-4.5)
6.00 to 7.00	7.00 to 8.00	7.00 to 8.00	7.00 to 8.00	COc1cc(-c2cnc3cc(-c4cc(C)no4)ccn23)cc(OC)c1C(=O)N[C@H](C)C(F)(F)F [compound 223, 2,6-dimethoxy-4-[7-(3-methylisoxazol-5-yl)imidazo[1,2-a]pyridin-3-yl]-N-[(1R)-2,2,2-trifluoro-1-methyl-ethyl]benzamide]	+++ (>4.5)
6.00 to 7.00	8.00 to 11.00	7.00 to 8.00	8.00 to 11.00	CCn1cc(-c2ccc3c(c2)ncn3-c2cc(OC)c(C(=O)NCC(F)F)c(OC)c2)cn1 [compound 11, N-(2,2-difluoroethyl)-4-[5-(1-ethylpyrazol-4-yl)benzimidazol-1-yl]-2,6-dimethoxy-benzamide]	++ (>1.5-4.5)
6.00 to 7.00	7.00 to 8.00	7.00 to 8.00	8.00 to 11.00	CCn1cc(-c2cnc3c(-c4cc(OC)c(C(=O)NCC(F)(F)F)c(OC)c4)cnn3c2)cn1 [compound 20, 4-[6-(1-ethylpyrazol-4-yl)pyrazolo[1,5-a]pyrimidin-3-yl]-2,6-dimethoxy-N-(2,2,2-trifluoroethyl)benzamide]	++ (>1.5-4.5)
